Test results as given in ChEMBL document CHEMBL5360532, “Current scenario of quinolone hybrids with potential antibacterial activity against ESKAPE pathogens” (Eur J Med Chem, 2023).
Converted amounts (≈) assume the structure as drawn.

Legend:
Pseudomonas aeruginosa [1] = assay: Antibacterial activity against Pseudomonas aeruginosa assessed as bacterial growth inhibition measured after 24 hrs by agar cup diffusion assay; assay type: functional
Escherichia coli [2] = assay: Antibacterial activity against Escherichia coli assessed as bacterial growth inhibition measured after 24 hrs by agar cup diffusion assay; assay type: functional
Staphylococcus aureus [3] = assay: Antibacterial activity against Staphylococcus aureus assessed as bacterial growth inhibition measured after 24 hrs by agar cup diffusion assay; assay type: functional
Staphylococcus aureus [4] = assay: Potency index, ratio of ciprofloxacin MIC to test compound MIC for antimicrobial activity against Staphylococcus aureus assessed as bacterial growth inhibition measured after 24 hrs by agar cup diffusion assay; assay type: functional
Staphylococcus aureus [5] = assay: Potency index, ratio of ciprofloxacin MIC to test compound MIC for antibacterial activity against Staphylococcus aureus assessed as bacterial growth inhibition by broth microdilution assay; assay type: functional
Staphylococcus aureus [6] = assay: Antibacterial activity against Staphylococcus aureus assessed as bacterial growth inhibition by broth microdilution assay; assay type: functional
Escherichia coli [7] = assay: Antibacterial activity against ESBL-producing Escherichia coli assessed as bacterial growth inhibition measured after 24 hrs by agar dilution assay; assay type: functional
Citrobacter = assay: Antibacterial activity against Citrobacter assessed as bacterial growth inhibition measured after 24 hrs by agar dilution assay; assay type: functional
Enterococcus faecalis [8] = assay: Antibacterial activity against Enterococcus faecalis ATCC 29212 assessed as bacterial growth inhibition measured after 24 hrs by agar dilution assay; assay type: functional
Pseudomonas aeruginosa [9] = assay: Antibacterial activity against imipenem resistant Pseudomonas aeruginosa VIM-2 assessed as bacterial growth inhibition measured after 24 hrs by agar dilution assay; assay type: functional
Enterococcus faecalis [10] = assay: Antibacterial activity against vancomycin resistant Enterococcus faecalis assessed as bacterial growth inhibition measured after 24 hrs by agar dilution assay; assay type: functional
Salmonella typhimurium = assay: Antibacterial activity against Salmonella typhi assessed as bacterial growth inhibition measured after 24 hrs by agar dilution assay; assay type: functional, Salmonella enterica subsp. enterica serovar […]; conditions: Salmonella enterica
Enterobacter cloacae = assay: Antibacterial activity against fosfomycin resistant Enterobacter cloacae assessed as bacterial growth inhibition measured after 24 hrs by agar dilution assay; assay type: functional
Serratia marcescens = assay: Antibacterial activity against Serratia marcescens assessed as bacterial growth inhibition measured after 24 hrs by agar dilution assay; assay type: functional
Staphylococcus aureus [11] = assay: Antibacterial activity against Staphylococcus aureus AUMC B-73 assessed as bacterial growth inhibition by agar cup diffusion method; assay type: functional
Staphylococcus aureus [12] = assay: Antibacterial activity against Staphylococcus aureus assessed as bacterial growth inhibition by agar cup diffusion method; assay type: functional
Staphylococcus aureus [13] = assay: Antibacterial activity Staphylococcus aureus ATCC 25923 assessed as bacterial growth inhibition by broth microdilution assay; assay type: functional
Escherichia coli [14] = assay: Antibacterial activity Escherichia coli ATCC 25922 assessed as bacterial growth inhibition by broth microdilution assay; assay type: functional
Staphylococcus aureus [15] = assay: Antibacterial activity against methicillin resistant Staphylococcus aureus assessed as bacterial growth inhibition by two fold serial dilution assay; assay type: functional
Pseudomonas aeruginosa [16] = assay: Antibacterial activity against Pseudomonas aeruginosa assessed as bacterial growth inhibition by two fold serial dilution assay; assay type: functional

**Q.** `O=C(/C=C/c1cccc(Cl)c1)c1ccc(NC(=O)N2CCN(c3cc4c(cc3F)c(=O)c(C(=O)O)cn4C3CC3)CC2)cc1` was tested. Which MIC (Pseudomonas aeruginosa [1]) did it give?
**A.** 0.06 µg/mL (≈ 0.0976 µM)

**Q.** And the MIC (Escherichia coli [2])?
**A.** 0.06 µg/mL (≈ 0.0976 µM)

**Q.** What about the MIC (Staphylococcus aureus [3]) of the same molecule?
**A.** 0.06 µg/mL (≈ 0.0976 µM)

**Q.** What about the Ratio (Staphylococcus aureus [4]) of the same molecule?
**A.** 54

**Q.** Which results are given for `O=C(CN1CCN(c2cc3c(cc2F)c(=O)c(C(=O)O)cn3C2CC2)CC1)N/N=C/C=C/c1c(F)cccc1F`?
**A.** Ratio (Staphylococcus aureus [5]): >=4; MIC (Staphylococcus aureus [6]): ≤ 0.125 µg/mL

**Q.** What does the source list for `CCOP(=O)(OCC)C(Nc1ncc(-c2cc3ccccc3oc2=O)s1)c1cc2cccc(C)c2[nH]c1=O` (stereo not given)?
**A.** MIC (Escherichia coli [7]): 0.25 µg/mL (≈ 0.453 µM); MIC (Citrobacter): 0.25 µg/mL (≈ 0.453 µM); MIC (Enterococcus faecalis [8]): 0.25 µg/mL (≈ 0.453 µM); MIC (Pseudomonas aeruginosa [9]): 0.25 µg/mL (≈ 0.453 µM); MIC (Enterococcus faecalis [10]): 0.25 µg/mL (≈ 0.453 µM); MIC (Salmonella typhimurium): 0.25 µg/mL (≈ 0.453 µM); MIC (Enterobacter cloacae): 0.25 µg/mL (≈ 0.453 µM); MIC (Serratia marcescens): 0.25 µg/mL (≈ 0.453 µM)

**Q.** `C/C(=N\O)c1ccc(NC(=O)C(C)N2CCN(c3cc4c(cc3F)c(=O)c(C(=O)O)cn4C3CC3)CC2)cc1` (stereo not given) was tested. Which MIC (Staphylococcus aureus [11]) did it give?
**A.** 0.2 µg/mL (≈ 0.373 µM)

**Q.** And the MIC (Staphylococcus aureus [12])?
**A.** 0.38 µg/mL (≈ 0.71 µM)

**Q.** With `C[C@@H](NC(=O)C(Cl)Cl)C(=O)N1CCN(c2cc3c(cc2F)c(=O)c(C(=O)O)cn3C2CC2)CC1` as the molecule, how does the MIC (Staphylococcus aureus [13]) read?
**A.** 0.167 µg/mL (≈ 0.325 µM)

**Q.** What about the MIC (Escherichia coli [14]) of the same molecule?
**A.** 0.082 µg/mL (≈ 0.16 µM)

**Q.** With `COc1c(N2CCN(C(=O)CN3CCN(CC(=O)O)CCN(CC(=O)O)CCN(CC(=O)O)CC3)C(C)C2)c(F)cc2c(=O)c(C(=O)O)cn(C3CC3)c12` (stereo not given) as the molecule, how does the MIC (Staphylococcus aureus [15]) read?
**A.** 1.56 µg/mL (≈ 2.05 µM)

**Q.** And the MIC (Pseudomonas aeruginosa [16])?
**A.** 3.12 µg/mL (≈ 4.1 µM)
